This is an account of results in patent US3962449A, “Cardioactive bispidones and bispidines” (priority 1974, dated 1976).

By ED50 is commonly meant the midpoint of the dose-response relation.

Read-outs that look alike come from different tables or passages of the source.

Data set [1] concerns experimentally induced heart rhythm disturbances (aconitine) in rats. As to the kind of experiment: Aconitine-induced heart rhythm disturbances in rats, intravenous pre-treatment. Type of data set: in vivo, rat. Particulars: for ED25 / ED50: Rattus norvegicus, iv; for occurrence of heart rhythm disturbances on pre-treatment: aconitine continuously infused intravenously. The text has this:
If rats are continuously infused intravenously with aconitine, then serious disturbances of the cardiac rhythm such as extrasystole, ventricular tachycardia, and ventricular flutter, which finally lead to the death of the experimental animals, can be observed on an electrocardiogram. […] This experimental arrhythmic model is checked by means of clinically tested standard therapeutic compounds as to its reliability and is well suited for characterizing antiarrhythmical compounds in experiments on animals [cf. for example, Bianci et al., Arzneim.-Forsch. 18, 845- 850 (1968); Haas und Busch, Arzneim.-Forsch. 18, 401- 407 (1968); Haas et al., Arzneim.-Forsch.21, 1392- 1399 (1971); Marmo, Naunyn-Schmiedeberg's Arch. Pharmakol. 269, 231- 247 (1971); and Strubelt et al., Naunyn-Schmiedeberg's Arch. Pharmakol. 271, 346- 360 (1971.]
The ED25 or ED50 are the intravenous dosages in mg/kg which allow an increase in administered aconitine doses, relative to the control, by 25 or 50%, respectively, before the occurrence of extrasystoles, ventricular tachycardia, and ventricular flutter.

The subject of data set [2] is left auricle of the heart of guinea pigs. As to the kind of experiment: Functional refractory period and contractility of the isolated left auricle (paired electrical stimulation, adapted from Govier). More on the design: Anti-arrhythmic effect (Refractory period extension) ED25 / Inotropic effect (Contraction force lowering) ED25: unit not given here. Type of data set: cell-based, guinea pig. To be noted: for Anti-arrhythmic effect (Refractory period extension) ED25: effective dose which extends the refractory period by 25%; for Anti-arrhythmic effect (Refractory period extension) ED25 / Inotropic effect (Contraction force lowering) ED25: guinea pig left auricle, up to 30 minutes; for Inotropic effect (Contraction force lowering) ED25: effective dose which lowers the contractional force by 25%; for Therapeutic Breadth (III/II): ratio of inotropic ED25 to anti-arrhythmic ED25. The text has this:
The experimental procedure utilized paired electrical stimulation in an adaptation of the method of […]. Pharmacol. Exp. […] In this model, the numerous known anti-arrhythmical preparations of differing structure and point of therapeutic attack all show an prolongation of the functional refractory period. The experiment additionally permits a study of the effects of different substances on the contractility of the heart muscles [Reuter und Heeg, Naunyn, Naunyn-Schmiedeberg's Arch. Pharmakol. […] Pharmakol. […] Therefore the experiment is suitable for discovering which substances have the greatest therapeutic range, that is to say, which have the greatest safety margin between the anti-arrhythmic and the negatively inotropically effective dosages. To test the substances, up to 18 and 30 individual experiments were carried out in each case. At least 3 dosages were tested each on 6 auricle preparations and the linear regression functions were calculated[[…] In column II, the […] shown and in column III, the inotropic effect is shown. In column IV, the therapeutic range of the compounds is shown.

The conditions of data set [3]: difference between doses producing an anti-arrhythmic effect and a negative inotropic effect; cited from earlier work.
Where [4] appears, read: read-out: Ventricular Tachycardia ED25.
Setting [5] is: read-out: Ventricular Tachycardia ED50.
[6] abbreviates: read-out: Ventricular flutter ED25.
[7] abbreviates: read-out: Ventricular flutter ED50.

For the compound `C1CCN2CC3CC(CN4CCCCC34)C2C1` (single isomer, unassigned) [Spartein, reference compound], the ED25 in data set [1] (setting [4]) stood at 4.43 mg/kg. In addition, in data set [1] (setting [5]), the ED50 worked out at 9.55 mg/kg. In addition, the “Extrasystoles ED25” value in data set [1] (intravenous, dose allowing 25% increase in aconitine dose relative to control before extrasystoles, rats) was “+)”. In data set [1] (intravenous, dose allowing 25% increase in aconitine dose relative to control before ventricular flutter, rats), the “Ventricular flutter ED25” value is “+)”. Moreover, in data set [1] (intravenous, dose allowing 50% increase in aconitine dose relative to control before extrasystoles, rats), the “Extrasystoles ED50” value is recorded as “+)”. Also, the “Ventricular flutter ED50” value in data set [1] (intravenous, dose allowing 50% increase in aconitine dose relative to control before ventricular flutter, rats) was “+)”.
`c1ccc(CN(CC2=NCCN2)c2ccccc2)cc1` [Antazolin]: in data set [2], the “Anti-arrhythmic effect (Refractory period extension) ED25” value (“Anti-arrhythmic effect” below) was 0.164, the “Inotropic effect (Contraction force lowering) ED25” value is listed as 0.094 and the “Therapeutic Breadth (III/II)” value is reported as 0.6. Also, the therapeutic range result in data set [3] was “narrow therapeutic range”.
In the case of `CCN(CC)CC(=O)Nc1c(C)cccc1C` [Lidocain], in data set [2], the “Anti-arrhythmic effect” value worked out at 0.47, the “Inotropic effect (Contraction force lowering) ED25” value is 0.48 and the “Therapeutic Breadth (III/II)” value was found to be 1.0. In addition, the therapeutic range result in data set [3] is given as “narrow therapeutic range”.
Take `c1ccc(CN2CC3CC(C2)CN(Cc2ccccc2)C3)cc1` [N,N'-dibenzyl-bispidine, N,N'-dibenzylbispidine]: the “Anti-arrhythmic effect” value in data set [2] came out at 0.034. Moreover, the “Inotropic effect (Contraction force lowering) ED25” value in data set [2] was found to be 0.07. Also, in data set [2], the “Therapeutic Breadth (III/II)” value was found to be 2.0. The results for the ED25 in data set [1] (read-out: Extrasystoles ED25), in data set [1] (setting [4]) and in data set [1] (setting [6]) were 1.06 mg/kg, 0.87 mg/kg and 1.03 mg/kg, respectively. Also, the ED50 in data set [1] (read-out: Extrasystoles ED50) is 1.76 mg/kg; in data set [1] (setting [5]), 1.23 mg/kg; in data set [1] (setting [7]), 1.48 mg/kg. Besides, the “occurrence of heart rhythm disturbances on pre-treatment” value in data set [1] (rats) was “prevented or at least substantially delayed”.
Regarding `CC(C)N1CC2CC(CN(CCc3ccccc3)C2)C1` [N-isopropyl-N'-β-phenylethyl-bispidine], the “Anti-arrhythmic effect” value in data set [2] amounted to 0.13. The “Inotropic effect (Contraction force lowering) ED25” value in data set [2] is 0.26. The “Therapeutic Breadth (III/II)” value in data set [2] is given as 2.0. In addition, the ED25 is around 1.8 mg/kg in data set [1] (read-out: Extrasystoles ED25), 1.41 mg/kg in data set [1] (setting [4]) and 1.7 mg/kg in data set [1] (setting [6]). Also, the figures for the ED50 in data set [1] (read-out: Extrasystoles ED50), in data set [1] (setting [5]) and in data set [1] (setting [7]) were around 2.3 mg/kg, 2.13 mg/kg and 2.47 mg/kg, respectively. In addition, the “occurrence of heart rhythm disturbances on pre-treatment” value in data set [1] (rats) is recorded as “prevented or at least substantially delayed”.
With `CCC[N+]12[C@H](O)[C@@H](CC)[C@@H]3C[C@H]1[C@@H]1N(C)c4ccccc4[C@]14C[C@H]2[C@@H]3[C@H]4O` [N-n-propylajmalin], in data set [2], the “Anti-arrhythmic effect” value is on record as 0.0037, the “Inotropic effect (Contraction force lowering) ED25” value amounted to 0.0015 and the “Therapeutic Breadth (III/II)” value was found to be 0.4.
